target: Human DGAT2 (Homo sapiens (Human), UniProt Q96PD7); assay: DGAT2 Enzymatic Activity Assay (triolein formation, LC/MS/MS); assay type: biochemical; conditions: hDGAT2 Sf-9 membrane prep; 25 μM diolein, 10 μM oleoyl-CoA; room temperature
Method: Sf-9 insect cells were maintained in Grace's insect cell culture medium with 10% heated-inactivated fetal bovine serum, 1% Pluronic F-68 and 0.14 μg/m Kanamycine sulfate in Erlenmeyer flasks at 28° C. in a shaker incubator. After infection with untagged hDGAT2 baculovirus at multiplicity of infection (MOI) 0.1 for 48 hours, cells were harvested. Cell pellets were suspended in buffer containing 10 mM Tris-HC (pH 7.5), 1 mM EDTA (pH 8.0), 250 mM sucrose and Complete Protease Inhibitor Cocktail (Roche Diagnostics Corp., Indianapolis, Ill.), and sonicated on ice. Membrane fractions were isolated by ultracentrifugation (100,000×g pellet), resuspended in the same buffer, and frozen (−80° C.) for later use. The protein concentration was determined with the BCA Protein Assay kit (Pierce Biotechnology Inc., Rockford, Ill.). Expression of protein levels was analyzed by immunoblotting with goat polyclonal DGAT2 antibody C-15 and donkey anti-goat IgG HRP (Santa Cruz Biotechnology, Inc., Santa Cruz, Calif.) followed by detection with ECL reagent (GE Healthcare, Piscataway, N.J.).
LC/MS/MS analyses were performed using Thermal Fisher's LX4-TSQ Vantage system. This system consists of an Agilent binary high-performance liquid chromatography (HPLC) pumps and a TSQ Vantage triple quadrupole MS/MS instrument. For each sample, 2 μL samples from the top organic layer of in-plate liquid-liquid extraction were injected onto a Thermo Betabasic C4 column (2.1 mm×20 mm, 5 μm particle size). The samples were then eluted using the following conditions; mobile phase: MeOH/water with 0.1% ammonium format=92/8 (v/v), flow rate: 1 mL/min, temperature: 25 C. Data was acquired in positive mode using a heated electrospray ionization (HESI) interface. The operational parameters for the TSQ Vantage MS/MS instrument were a spray voltage of 3000 V, capillary temperature of 280° C., vaporizer temperature 400° C., shealth gas 60 arbitrary unit, Aux gas 40 arbitrary units, S-lens 113 and collision gas 0.16 Pascals. […] (SRM) chromatograms of triolein (Q1: 902.9>Q3:602.3) and internal standard ([…]) were collected for 40 sec. The peak area was integrated by Xcalibur Quan software. The ratio between the triolein generated in the reaction and spiked in internal standard was used to generate percentage inhibition and IC50 values. Compound percentage inhibition was calculated by the following formula: Inhibition %=1−[(compound response−low control)/(high control−low control)]×100%. Potent compounds were titrated and IC50 were calculated by 4 parameter sigmoidal curve fitting formula.
DGAT2 activity was determined by measuring the amount of enzymatic product triolein (1,2,3-Tri(cis-9-octadecenoyl)glycerol) using the membrane prep mentioned above. The assay was carried out in deep well 384 plates in a final volume of 40 μL at room temperature. The assay mixture contained the following: assay buffer (100 mM Tris.Cl, pH 7.0, 20 mM MgCl2, 5% ethanol), 25 μM of diolein, 10 μM of oleoyl-CoA and 10 ng/μL of DGAT2 membrane.

Sequence of Human DGAT2 (Q96PD7 whole entry): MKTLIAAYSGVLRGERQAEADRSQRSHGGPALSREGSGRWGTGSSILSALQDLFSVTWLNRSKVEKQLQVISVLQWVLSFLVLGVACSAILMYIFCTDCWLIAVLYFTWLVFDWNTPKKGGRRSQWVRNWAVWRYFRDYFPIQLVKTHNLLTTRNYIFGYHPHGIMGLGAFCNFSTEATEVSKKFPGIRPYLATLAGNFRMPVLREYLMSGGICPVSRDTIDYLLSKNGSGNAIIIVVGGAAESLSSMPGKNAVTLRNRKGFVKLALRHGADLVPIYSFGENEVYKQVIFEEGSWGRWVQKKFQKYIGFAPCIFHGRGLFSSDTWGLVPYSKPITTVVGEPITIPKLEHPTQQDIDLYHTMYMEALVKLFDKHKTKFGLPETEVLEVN

Row | Structure (SMILES) | IC50 [nM]
1 | COC(=O)c1ccc(-n2nc(-c3ccccc3Cl)c3ccc(C(=O)NC4(C)CCS(=O)(=O)C4)cc32)cc1 (racemic) [Example 187, methyl 4-{3-(2-chlorophenyl)-6-[(3-methyl-1,1-dioxidotetrahydrothiophen-3-yl)carbamoyl]-1H-indazol-1-yl}benzoate] | 644
2 | CC1(NC(=O)c2ccc3c(-c4cccc(C5CC5)c4)nn(-c4ccc(F)cc4)c3c2)CCS(=O)(=O)C1 (single isomer, unassigned) [Example 145-A, 3-(3-cyclopropylphenyl)-1-(4-fluorophenyl)-N-(3-methyl-1,1-dioxidotetrahydrothiophen-3-yl)-1H-indazole-6-carboxamide] | 2.1
3 | CC1(NC(=O)c2ccc3c(-c4ccccc4Cl)nn(-c4ccccn4)c3c2)CCS(=O)(=O)C1 (single isomer, unassigned) [Example 174-A, 3-(2-chlorophenyl)-N-(3-methyl-1,1-dioxidotetrahydrothiophen-3-yl)-1-pyridin-2-yl-1H-indazole-6-carboxamide] | 71
4 | O=C(NC1CC[S+]([O-])C1)c1ccc2c(-c3ccccc3Cl)nn(-c3ccc(F)cc3)c2c1 (single isomer, unassigned) [Example 58-A, 3-(2-chlorophenyl)-1-(4-fluorophenyl)-N-(1-oxidotetrahydrothiophen-3-yl)-1H-indazole-6-carboxamide] | 668
5 | CN(C)C(=O)c1cccc(-c2nn(-c3ccc(F)cc3)c3cc(C(=O)NC4(C)CCS(=O)(=O)C4)ccc23)c1 (racemic) [Example 148, 3-[3-(dimethylcarbamoyl)phenyl]-1-(4-fluorophenyl)-N-(3-methyl-1,1-dioxidotetrahydrothiophen-3-yl)-1H-indazole-6-carboxamide] | 855
6 | CC1(NC(=O)c2ccc3c(-c4cccc(OC(F)F)c4)nn(-c4ccc(F)cn4)c3c2)CCS(=O)(=O)C1 (single isomer, unassigned) [Example 128-A, 3-[3-(difluoromethoxy)phenyl]-1-(5-fluoropyridin-2-yl)-N-(3-methyl-1,1-dioxidotetrahydrothiophen-3-yl)-1H-indazole-6-carboxamide] | 3.3
7 | COc1cccc(-c2nn(-c3ccc(F)cc3)c3cc(C(=O)NC4CCS(=O)(=O)C4)ccc23)c1 (single isomer, unassigned) [Example 131-A, N-(1,1-dioxidotetrahydrothiophen-3-yl)-1-(4-fluorophenyl)-3-(3-methoxyphenyl)-1H-indazole-6-carboxamide] | 3
8 | O=C(NC1CCS(=O)(=O)C1)c1ccc2c(-c3ccccc3Cl)nn(-c3ccc(Cl)cn3)c2c1 (single isomer, unassigned) [Example 173-A, 3-(2-chlorophenyl)-1-(5-chloropyridin-2-yl)-N-(1,1-dioxidotetrahydrothiophen-3-yl)-1H-indazole-6-carboxamide] | 23
9 | O=C(NC1CC[S+]([O-])C1)c1ccc2c(-c3ccccc3Cl)nn(-c3ccc(F)cc3)c2c1 (single isomer, unassigned) [Example 58-B, 3-(2-chlorophenyl)-1-(4-fluorophenyl)-N-(1-oxidotetrahydrothiophen-3-yl)-1H-indazole-6-carboxamide] | 608
10 | Cn1ccc(-n2nc(-c3ccccc3Cl)c3ccc(C(=O)NC4(C)CCS(=O)(=O)C4)cc32)n1 (racemic) [Example 184, 3-(2-chlorophenyl)-N-(3-methyl-1,1-dioxidotetrahydrothiophen-3-yl)-1-(1-methyl-1H-pyrazol-3-yl)-1H-indazole-6-carboxamide] | 201
11 | CC1(NC(=O)c2ccc3c(-c4ccccc4Cl)nn(-c4ccc(F)cn4)c3c2)CCS(=O)(=O)C1 (single isomer, unassigned) [Example 172-A] | 39
12 | CC(C)(C)OC(=O)CCNC(=O)c1ccc2c(-c3ccccc3Cl)nn(-c3ccc(F)cc3)c2c1 [Example 19, tert-butyl N-{[3-(2-chlorophenyl)-1-(4-fluorophenyl)-1H-indazol-6-yl]carbonyl}-beta-alaninate] | 585
13 | O=C(NC1(CO)CCS(=O)(=O)C1)c1ccc2c(-c3ccccc3Cl)nn(-c3ccc(F)cc3)c2c1 (racemic) [Example 92, 3-(2-chlorophenyl)-1-(4-fluorophenyl)-N-[3-(hydroxymethyl)-1,1-dioxidotetrahydrothiophen-3-yl]-1H-indazole-6-carboxamide] | 372
14 | O=C(N[C@@H]1CS(=O)(=O)C[C@H]1O)c1ccc2c(-c3ccccc3Cl)nn(-c3ccc(F)cc3)c2c1 [Example 9, 3-(2-chlorophenyl)-1-(4-fluorophenyl)-N-[(3S,4S)-4-hydroxy-1,1-dioxidotetrahydrothiophen-3-yl]-1H-indazole-6-carboxamide] | 531
15 | O=C(NC1CCS(=O)(=O)CC1)c1ccc2c(-c3ccccc3Cl)nn(-c3ccc(F)cc3)c2c1 [Example 24, 3-(2-chlorophenyl)-N-(1,1-dioxidotetrahydro-2H-thiopyran-4-yl)-1-(4-fluorophenyl)-1H-indazole-6-carboxamide] | 61
16 | O=C(NC1CCS(=O)(=O)C1)c1ccc2c(-c3ccccc3Cl)nn(-c3ccc(F)cn3)c2c1 (single isomer, unassigned) [Example 176-A, 3-(2-chlorophenyl)-N-(1,1-dioxidotetrahydrothiophen-3-yl)-1-(5-fluoropyridin-2-yl)-1H-indazole-6-carboxamide] | 252

Results, then the compound that gave them:

Row | IC50 [nM] | Structure (SMILES)
17 | 164 | CC(NC(=O)c1ccc2c(-c3ccccc3Cl)nn(-c3ccc(F)cc3)c2c1)c1cn(C(=O)OC(C)(C)C)cn1 (racemic) [Example 7, tert-butyl 4-[1-({[3-(2-chlorophenyl)-1-(4-fluorophenyl)-1H-indazol-6-yl]carbonyl}amino)ethyl]-1H-imidazole-1-carboxylate]
18 | 593 | CC(Cc1ccccn1)NC(=O)c1ccc2c(-c3ccccc3Cl)nn(-c3ccc(F)cc3)c2c1 (racemic) [Example 112, 3-(2-chlorophenyl)-1-(4-fluorophenyl)-N-(1-methyl-2-pyridin-2-ylethyl)-1H-indazole-6-carboxamide]
19 | 832 | C[C@@H](NC(=O)c1ccc2c(-c3ccccc3Cl)nn(-c3ccc(F)cc3)c2c1)[C@@H](O)c1ccccc1 [Example 106, 3-(2-chlorophenyl)-1-(4-fluorophenyl)-N-[(1R,2S)-2-hydroxy-1-methyl-2-phenylethyl]-1H-indazole-6-carboxamide]
20 | 127 | O=C(N[C@@H](CO)[C@@H](O)c1ccccc1)c1ccc2c(-c3ccccc3Cl)nn(-c3ccc(F)cc3)c2c1 [Example 80, 3-(2-chlorophenyl)-1-(4-fluorophenyl)-N-[(1S,2S)-2-hydroxy-1-(hydroxymethyl)-2-phenylethyl]-1H-indazole-6-carboxamide]
21 | 413 | O=C(NC1CCNC1=O)c1ccc2c(-c3ccccc3Cl)nn(-c3ccc(F)cc3)c2c1 (racemic) [Example 52, 3-(2-chlorophenyl)-1-(4-fluorophenyl)-N-(2-oxopyrrolidin-3-yl)-1H-indazole-6-carboxamide]
22 | 16 | COC[C@H](NC(=O)c1ccc2c(-c3ccccc3Cl)nn(-c3ccc(F)cc3)c2c1)[C@@H](O)c1ccccc1 [Example 74, 3-(2-chlorophenyl)-1-(4-fluorophenyl)-N-[(1S,2S)-2-hydroxy-1-(methoxymethyl)-2-phenylethyl]-1H-indazole-6-carboxamide]
23 | 301 | CC(c1cc(-c2ccccc2)[nH]n1)N(C)C(=O)c1ccc2c(-c3ccccc3Cl)nn(-c3ccc(F)cc3)c2c1 (racemic) [Example 27, 3-(2-chlorophenyl)-1-(4-fluorophenyl)-N-methyl-N-[1-(5-phenyl-1H-pyrazol-3-yl)ethyl]-1H-indazole-6-carboxamide]
24 | 48 | C[C@H](NC(=O)c1ccc2c(-c3ccccc3Cl)nn(-c3ccc(F)cc3)c2c1)c1ccc(C(F)(F)F)nc1 [Example 13, 3-(2-chlorophenyl)-1-(4-fluorophenyl)-N-{(1S)-1-[6-(trifluoromethyl)pyridin-3-yl]ethyl}-1H-indazole-6-carboxamide]
25 | 6.1 | CC(C)(C)[C@@H](CO)NC(=O)c1ccc2c(-c3ccccc3Cl)nn(-c3ccc(F)cc3)c2c1 [Example 99, 3-(2-chlorophenyl)-1-(4-fluorophenyl)-N-[(1S)-1-(hydroxymethyl)-2,2-dimethylpropyl]-1H-indazole-6-carboxamide]
